Reference: patent US20260053812A1, “METHODS OF TREATING HYPERTENSION WITH A COMBINATION OF AN ALDOSTERONE SYNTHASE INHIBITOR AND A DIURETIC” (Mineralys Therapeutics, Inc., priority 2022, published 2026)
Values joined by “and” are separate entries in the source; they are usually repeats but may differ in a detail not shown here. Equal values may be shown once. “Also recorded” adds a separate entry of the source. Read-outs that look alike come from different tables or passages of the source.

Legend:
Type in all cases: in vivo, human
[1] = Pharmacokinetics (plasma concentration, Cmax, AUC, trough); conditions: for concentration at 7 day: human, plasma, oral, Day 7, read-out: Trough plasma concentration, Geo Mean
Excerpt: Pharmacokinetic endpoints of this study are PK parameters, including, of area under the plasma concentration versus time curve (AUC), maximum plasma concentration (Cmax), time to maximum concentration (Tmax), and half-life (t1/2) will be summarized descriptively for Randomization (baseline) and Study Weeks 1, 4, and 8
(§1) PK/PD Analysis Set includes all subjects in the SAF who have sufficient data available for the analysis of pharmacokinetic and pharmacodynamic measurements. In the analyses based on PKPD, subjects will be analyzed according to the actual treatment received.

[2] = system: serum cortisol; assay: Pharmacodynamics: serum cortisol; conditions: for Cortisol, mean observed: BL
Excerpt: as §1

[3] = system: plasma renin activity; assay: Pharmacodynamics: plasma renin activity (PRA); conditions: for Renin Activity, mean observed: BL
Excerpt: as §1

[4] = Estimated glomerular filtration rate (eGFR, CKD-EPI equation); conditions: for Estimated Glomerular Filtration Rate, mean observed / Estimated Glomerular Filtration Rate, mean change from baseline: Part 1
[5] = steady state, Day 28, 100 mg QD Part 1

## CC(=O)N[C@H]1CC[C@H](NC(=O)CN2CCN(c3nncc(-c4ccc(C)cc4)n3)CC2)CC1 [Compound A HBr]
[1]; across doses
  Systemic exposure expressed as Cmax or AUC: increased with increasing dose
[1]; 12.5 mg, 12.5 mg BID
  concentration at 7 day: 20.4 ng/mL
[1]; 12.5 mg, 12.5 mg QD
  concentration at 7 day: 6.55 ng/mL
[1]; 25 mg, 25 mg BID
  concentration at 7 day: 49.6 ng/mL
[1]; 50 mg, 50 mg QD
  concentration at 7 day: 16.6 ng/mL
[1]; 100 mg, 100 mg QD Part 1
  concentration at 7 day: 53.4 ng/mL
[1]; 100 mg, 100 mg QD Part 2
  concentration at 7 day: 35.1 ng/mL
[1]; [5]
  AUC0-24, Median: 15000 ng·h/mL
  Cmax, Geo Mean: 1370 ng/mL
[2]; Part 1, 12.5 mg BID
  Cortisol, mean observed: 10.195 µg/dL
[2]; Part 1, 12.5 mg QD
  Cortisol, mean observed: 9.443 µg/dL
[2]; Part 1, 25 mg BID
  Cortisol, mean observed: 10.577 µg/dL
[2]; Part 1, 50 mg QD
  Cortisol, mean observed: 10.807 µg/dL
[2]; Part 1, 100 mg QD
  Cortisol, mean observed: 11.272 µg/dL
[2]; Part 1 active arms (range across doses), Week 4
  Serum cortisol percent change from baseline: 3.8% to 19.2%
[2]; Part 1 active arms (range across doses), Week 8
  Serum cortisol percent change from baseline: 20.6% to 51.4%
[2]; Part 1 active arms (range across doses), Week 12, listed as lorundrostat
  Serum cortisol percent change from baseline: −1.2% to 22.7% and −1.2 to 22.6%
[2]; Part 2 100 mg QD, Week 12
  Serum cortisol percent change from baseline: 1.5%
[2]; Part 2, 100 mg QD
  Cortisol, mean observed: 11.118 µg/dL
[2]; Part 2, 100 mg QD, Week 4
  Serum cortisol percent change from baseline: 20.1%
[2]; Part 2, 100 mg QD, Week 8
  Serum cortisol percent change from baseline: 153.4%
[2]; during the trial, listed as lorundrostat
  Adrenocortical insufficiency: no adrenocortical insufficiency
[2]; pooled (Part 1 and Part 2) 100 mg QD safety set (n=60)
  Effect on serum cortisol: no effects on serum cortisol
[2]; summary of trial
  Morning serum cortisol levels: modestly increased
[3]; Part 1, 12.5 mg BID
  Renin Activity, mean observed: 1.299 µg/L/h
[3]; Part 1, 12.5 mg QD
  Renin Activity, mean observed: 0.950 µg/L/h
[3]; Part 1, 25 mg BID
  Renin Activity, mean observed: 1.104 µg/L/h
[3]; Part 1, 50 mg QD
  Renin Activity, mean observed: 1.258 µg/L/h
[3]; Part 1, 100 mg QD
  Renin Activity, mean observed: 0.956 µg/L/h
[3]; Part 2, 100 mg QD
  Renin Activity, mean observed: 5.417 µg/L/h
[3]; pharmacodynamic response, all doses, listed as lorundrostat
  Plasma renin activity: commensurate increase; also recorded: increased in all subjects treated with lorundrostat
[4]; 100 mg QD, Part 1, Week 2
  eGFR mean maximum decline relative to baseline: 10.91 mL/min/1.73 m^2
[4]; 12.5 mg BID, BL
  Estimated Glomerular Filtration Rate, mean observed: 81.70 mL/min/1.73 m^2
[4]; 12.5 mg BID, Week 1
  Estimated Glomerular Filtration Rate, mean change from baseline: −2.25 mL/min/1.73 m^2
  Estimated Glomerular Filtration Rate, mean observed: 79.45 mL/min/1.73 m^2
[4]; 12.5 mg BID, Week 2
  Estimated Glomerular Filtration Rate, mean change from baseline: −3.69 mL/min/1.73 m^2
  Estimated Glomerular Filtration Rate, mean observed: 78.86 mL/min/1.73 m^2
[4]; 12.5 mg BID, Week 3
  Estimated Glomerular Filtration Rate, mean change from baseline: −5.17 mL/min/1.73 m^2
  Estimated Glomerular Filtration Rate, mean observed: 77.38 mL/min/1.73 m^2
[4]; 12.5 mg BID, Week 4
  Estimated Glomerular Filtration Rate, mean change from baseline: −6.58 mL/min/1.73 m^2
  Estimated Glomerular Filtration Rate, mean observed: 76.30 mL/min/1.73 m^2
[4]; 12.5 mg BID, Week 5
  Estimated Glomerular Filtration Rate, mean change from baseline: −7.58 mL/min/1.73 m^2
  Estimated Glomerular Filtration Rate, mean observed: 73.84 mL/min/1.73 m^2
[4]; 12.5 mg BID, Week 6
  Estimated Glomerular Filtration Rate, mean change from baseline: −6.45 mL/min/1.73 m^2
  Estimated Glomerular Filtration Rate, mean observed: 74.70 mL/min/1.73 m^2
[4]; 12.5 mg BID, Week 7
  Estimated Glomerular Filtration Rate, mean change from baseline: −7.03 mL/min/1.73 m^2
  Estimated Glomerular Filtration Rate, mean observed: 75.85 mL/min/1.73 m^2
[4]; 12.5 mg BID, Week 8
  Estimated Glomerular Filtration Rate, mean change from baseline: −6.66 mL/min/1.73 m^2
  Estimated Glomerular Filtration Rate, mean observed: 76.32 mL/min/1.73 m^2
[4]; 12.5 mg QD, BL
  Estimated Glomerular Filtration Rate, mean observed: 77.87 mL/min/1.73 m^2
[4]; 12.5 mg QD, Week 1
  Estimated Glomerular Filtration Rate, mean change from baseline: −4.30 mL/min/1.73 m^2
  Estimated Glomerular Filtration Rate, mean observed: 73.57 mL/min/1.73 m^2
[4]; 12.5 mg QD, Week 2
  Estimated Glomerular Filtration Rate, mean change from baseline: −4.87 mL/min/1.73 m^2
  Estimated Glomerular Filtration Rate, mean observed: 73.00 mL/min/1.73 m^2
[4]; 12.5 mg QD, Week 3
  Estimated Glomerular Filtration Rate, mean change from baseline: −2.05 mL/min/1.73 m^2
  Estimated Glomerular Filtration Rate, mean observed: 77.21 mL/min/1.73 m^2
[4]; 12.5 mg QD, Week 4
  Estimated Glomerular Filtration Rate, mean change from baseline: −5.45 mL/min/1.73 m^2
  Estimated Glomerular Filtration Rate, mean observed: 73.40 mL/min/1.73 m^2
[4]; 12.5 mg QD, Week 5
  Estimated Glomerular Filtration Rate, mean change from baseline: −3.60 mL/min/1.73 m^2
  Estimated Glomerular Filtration Rate, mean observed: 75.25 mL/min/1.73 m^2
[4]; 12.5 mg QD, Week 6
  Estimated Glomerular Filtration Rate, mean change from baseline: −6.28 mL/min/1.73 m^2
  Estimated Glomerular Filtration Rate, mean observed: 73.39 mL/min/1.73 m^2
[4]; 12.5 mg QD, Week 7
  Estimated Glomerular Filtration Rate, mean change from baseline: −7.17 mL/min/1.73 m^2
  Estimated Glomerular Filtration Rate, mean observed: 72.50 mL/min/1.73 m^2
[4]; 12.5 mg QD, Week 8
  Estimated Glomerular Filtration Rate, mean change from baseline: −3.67 mL/min/1.73 m^2
  Estimated Glomerular Filtration Rate, mean observed: 76.00 mL/min/1.73 m^2
[4]; 25 mg BID, BL
  Estimated Glomerular Filtration Rate, mean observed: 80.85 mL/min/1.73 m^2
